Laboratory results: US20260364080A1, “PYRAZOLO-PYRIMIDINONE COMPOUNDS FOR USE IN METHODS OF INHIBITING WEE1 A KINASE” (Acrivon Therapeutics, Inc., priority 2023, published 2026)
Where two headings read alike, the source gives them in different places.

What was measured:
[1] = biological target: T1, recombinant human Wee1A kinase (Homo sapiens, UniProt P30291); assay: Wee1A kinase binding assay (LanthaScreen Eu time-resolved FRET)
T1 construct: full length Wee1 kinase was expressed by baculovirus in insect cells; purchased Invitrogen PV3817; host or cells: insect cells (baculovirus)
Method: This time resolved-FRET binding assay was performed in white 384-well low volume plates (Greiner, cat #784075), at room temperature in kinase buffer A (KBA; Invitrogen cat #PV3189), consisting of 50 mM HEPES-NaOH (pH 7.5), 0.01% Brij-35, 10 mM MgCl2, and 1 mM EGTA. 5 μL of compound (diluted in reaction buffer, to 1% DMSO) were added to various wells in the plate, followed by 5 μL each of recombinant human Wee1A kinase (full length Wee1 kinase was expressed by baculovirus in insect cells using a N-terminal GST tag (MW: 99.1 kDa) (Invitrogen cat #PV3817) and LanthaScreen Eu-anti-GST antibody (Invitrogen, cat #PV5594). After this, 5 μL of kinase tracer 178 (Invitrogen, cat #PV5593) was added to the plate and the plate was incubated for 60 minutes at room temperature. The final assay conditions in each well were: 30 nM tracer 178, 5 nM Wee1A kinase and 2 nM Eu-labeled antibody in total assay volume of 15 μL. An Envision 2104 (Perkin-Elmer) Plate Reader with the following time-resolve fluorescence setting was used for performing LanthaScreen kinase binding assay. • Excitation 320 nm (30 nm bandpass) • Kinase Tracer Emission 665 nm (10 nm bandpass) • LanthaScreen Eu-anti-Tag Antibody Emission 615 nm (10 nm bandpass) • Dichroic Mirror Instrument dependent • Delay Time 100 μs • Integration Time 200 μs
(§1) To calculate the emission ratio, the acceptor/tracer emission ([…]) was divided by the antibody/donor emission ([…]) and the average of duplicate measurement was used for calculations. Data plotting, analysis of binding, and curve fitting was done using Excel add-in XLfit version 5.5.0.5 (IDBS, Guildford, United Kingdom). […] “NT” means not tested.

[2] = biological target: T2, Myt1 kinase (recombinant PMYT-1) (Homo sapiens, UniProt Q99640); assay: Myt1 kinase binding assay (LanthaScreen Eu Kinase Binding Assay); details: 3 nM tracer 178, 2.5 nM PMYT-1, 1 nM Eu-labeled antibody; read-out: Myt1 kinase Binding IC50
T2 construct: full length PMYT-1 was expressed by baculovirus in insect cells; purchased Invitrogen A30984; host or cells: insect cells (baculovirus)
T2 sequence (Q99640 1-499): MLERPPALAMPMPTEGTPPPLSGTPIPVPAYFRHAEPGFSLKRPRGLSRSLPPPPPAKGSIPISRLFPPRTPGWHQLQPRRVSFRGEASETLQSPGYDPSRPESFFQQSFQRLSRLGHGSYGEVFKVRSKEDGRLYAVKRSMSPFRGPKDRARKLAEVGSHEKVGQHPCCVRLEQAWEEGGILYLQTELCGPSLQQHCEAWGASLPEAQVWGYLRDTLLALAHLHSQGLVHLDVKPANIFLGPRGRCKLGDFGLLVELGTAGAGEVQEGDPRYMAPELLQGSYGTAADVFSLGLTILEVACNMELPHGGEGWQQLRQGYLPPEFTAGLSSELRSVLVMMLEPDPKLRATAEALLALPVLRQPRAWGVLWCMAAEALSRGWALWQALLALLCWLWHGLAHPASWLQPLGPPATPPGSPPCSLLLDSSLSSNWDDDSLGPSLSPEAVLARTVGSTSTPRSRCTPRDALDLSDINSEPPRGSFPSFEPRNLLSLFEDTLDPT
Method: as §1
We used a LanthaScreen Europium (Eu) Kinase Binding Assay to determine the binding affinities (IC50) of compounds to Myt1 kinase. […] “NT” designates that the compound was not tested in this assay.

[3] = biological target: T3, Wee1A kinase (CDK1 Tyr15 phosphorylation in ACHN renal cell carcinoma cells) (Homo sapiens, UniProt P30291); assay: High-content imaging of pCdk1 Y15, Wee1A kinase target engagement in ACHN cells; assay type: cell-based
T3 construct: pCDK1 Tyr15 immunofluorescence read-out
Method: Each of an ACHN renal cell carcinoma cell line (ATCC) and a DAOY medulloblastoma cell line, and an A427 lung cancer line were cultured in Minimum Essential Medium Eagle supplemented with 10% fetal calf serum (Sigma), 1% Penicillin-Streptomycin and 10 mM HEPES buffer (HyClone). Cell cultures were kept in a humidified incubator at 37 °C and 5% CO2. Cells were routinely tested for Mycoplasma contamination.
For target engagement assessment of Wee1A kinase inhibition, high-content imaging of ACHN renal cell carcinoma cells was used for quantification of CDK1 phosphorylated on tyrosine 15 by immunofluorescence (“IF”). 20,000 cells per well were seeded in tissue culture treated 96 well plates and treated with compounds at concentrations ranging from 7 to 5,000 nM or from 0.3 to 200 nM for 4h. Cells were fixated for 15 minutes in 4% paraformaldehyde solution, washed in PBS and permeabilized using 0.2% Triton X-100. Blocking was performed for 1 h at RT using Blocker FL Fluorescent Blocking Buffer (Thermo Scientific), thereafter cells were incubated with primary antibody (rabbit anti-pCDK1 Y^15, #4539, Cell Signaling Technology) at 4 °C ON. Alexa Fluor Plus 647 labelled goat anti-rabbit (A32733, Thermo Scientific) was used as secondary antibody. After washing in PBS, nuclei were stained with DAPI solution for 10 min at RT, protected from light. Cells were imaged using an ImageXpress Pico automated imaging system and CellReporter Xpress software (Molecular Devices). The percentage of cells with nuclear positivity for pCdk1 Y^15 compared to DMSO control was determined for each well and drug dose response curves and EC50 values were calculated and visualized using GraphPad Prism. Target engagement for Wee1A kinase can also be measured using the same AlphaLISA assay in OVCAR3 cells, an ovarian cancer cell line. NIH:OVCAR-3 (OVCAR3) cells are cultured in RPMI-1640 medium supplemented with 0.01 mg/ml insulin, 20% FBS, 1% Penicillin-Streptomycin and 10 mM HEPES buffer. 14,000 cells per well are seeded into 96 well tissue culture plates in full medium. Twenty-four hours post seeding, cells are treated with compound for 4 hours at concentrations ranging from 0.017 nM to 1000 nM.

[4] = 30 nM tracer 178, 5 nM Wee1A kinase, 2 nM Eu-labeled antibody, 60 minutes at room temperature, read-out: Wee1A kinase Binding IC50
[5] = 4 h treatment, nuclear positivity for pCdk1 Y15 vs DMSO control, read-out: CDK1 Tyr15 Phosphorylation EC50
[6] = read-out: CDK1 Tyr15 Phosphorylation EC50, 4 h treatment, nuclear positivity for pCdk1 Y15 vs DMSO control

T1 sequence (P30291 whole entry): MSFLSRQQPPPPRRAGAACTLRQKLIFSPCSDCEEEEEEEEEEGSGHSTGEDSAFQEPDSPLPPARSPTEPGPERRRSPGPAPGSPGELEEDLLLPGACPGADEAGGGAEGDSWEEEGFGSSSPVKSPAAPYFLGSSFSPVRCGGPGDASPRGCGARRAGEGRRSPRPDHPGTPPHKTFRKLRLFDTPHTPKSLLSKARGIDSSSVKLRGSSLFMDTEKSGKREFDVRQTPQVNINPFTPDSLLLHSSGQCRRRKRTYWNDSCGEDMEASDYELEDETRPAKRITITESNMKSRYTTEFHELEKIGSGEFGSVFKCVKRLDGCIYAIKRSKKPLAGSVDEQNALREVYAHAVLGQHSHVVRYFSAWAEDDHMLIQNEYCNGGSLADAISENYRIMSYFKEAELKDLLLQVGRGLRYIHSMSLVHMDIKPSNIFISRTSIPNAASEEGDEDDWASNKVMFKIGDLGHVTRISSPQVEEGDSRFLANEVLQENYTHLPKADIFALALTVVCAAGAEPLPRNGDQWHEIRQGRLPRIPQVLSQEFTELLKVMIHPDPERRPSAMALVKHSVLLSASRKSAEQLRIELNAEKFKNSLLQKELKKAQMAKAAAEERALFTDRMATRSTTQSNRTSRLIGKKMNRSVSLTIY
T3 sequence (P30291 whole entry): as above

IC50 [1, 4] [nM]	IC50 [2] [nM]	EC50 [3, 5] [nM]	EC50 [3, 6] [nM]	IC50 [1] [nM]	Structure (SMILES)
10 to 100	100 to 500	–	–	–	C=CCn1c(=O)c2cnc(Nc3ccc(Cl)cc3)nc2n1-c1cccc(O[C@H]2CCCN(C)C2)n1 [Compound 162, 6-[(4-chlorophenyl)amino]-1-(6-{[(3S)-1-methylpiperidin-3-yl]oxy}pyridin-2-yl)-2-(prop-2-en-1-yl)-1H,2H,3H-pyrazolo[3,4-d]pyrimidin-3-one]
10 to 100	> 500	–	–	–	C=CCn1c(=O)c2cnc(Nc3ccc(Cl)cc3)nc2n1-c1cccc(N(C)[C@@H]2CCCN(C)C2)n1 [Compound 163, (R)-2-allyl-6-((4-chlorophenyl)amino)-1-(6-(methyl(1-methylpiperidin-3-yl)amino)pyridin-2-yl)-1,2-dihydro-3H-pyrazolo[3,4-d]pyrimidin-3-one]
10 to 100	> 500	–	–	–	C=CCn1c(=O)c2cnc(Nc3ccc(Cl)cc3)nc2n1-c1cccc(N(C)[C@H]2CCCN(C)C2)n1 [Compound 164, 1-(6-{[(S)-1-methyl-3-piperidyl]-N-methylamino}-2-pyridyl)-2-allyl-6-(p-chlorophenylamino)-1,2-dihydro-3H-1,2,5,7-tetraazainden-3-one]
10 to 100	100 to 500	–	–	–	C=CCn1c(=O)c2cnc(Nc3ccc(Cl)cc3)nc2n1-c1cccc(N[C@H]2CCCN(C)C2)n1 [Compound 167, 1-{6-[(S)-1-methyl-3-piperidylamino]-2-pyridyl}-2-allyl-6-(p-chlorophenylamino)-1,2-dihydro-3H-1,2,5,7-tetraazainden-3-one]
10 to 100	> 500	–	–	–	C=CCn1c(=O)c2cnc(Nc3ccc(Cl)cc3)nc2n1-c1cccc(N(C)[C@H]2CCCNC2)n1 [Compound 173, 1-{6-[N—(S)-3-piperidyl-N-methylamino]-2-pyridyl}-2-allyl-6-(p-chlorophenylamino)-1,2-dihydro-3H-1,2,5,7-tetraazainden-3-one]
< 10	–	100 to 500	–	–	C=CCn1c(=O)c2cnc(Nc3ccnc(C)c3)nc2n1-c1cccc(OC2CCN(C)CC2)c1 [Compound 219, 2-allyl-1-[m-(1-methyl-4-piperidyloxy)phenyl]-6-(2-methyl-4-pyridylamino)-1,2-dihydro-3H-1,2,5,7-tetraazainden-3-one]
< 10	–	500 to 1000	–	–	C=CCn1c(=O)c2cnc(Nc3cnn(C)c3)nc2n1-c1cccc(OC2CCN(C)CC2)c1 [Compound 221, 2-allyl-1-[m-(1-methyl-4-piperidyloxy)phenyl]-6-(1-methyl-4-pyrazolylamino)-1,2-dihydro-3H-1,2,5,7-tetraazainden-3-one]
< 10	–	> 1000	–	–	C=CCn1c(=O)c2cnc(Nc3ccnc(C)c3)nc2n1-c1cccc(OC2CCNCC2)c1 [Compound 222, 2-allyl-6-(2-methyl-4-pyridylamino)-1-[m-(4-piperidyloxy)phenyl]-1,2-dihydro-3H-1,2,5,7-tetraazainden-3-one]
< 10	–	> 1000	–	–	C=CCn1c(=O)c2cnc(Nc3cnn(C)c3)nc2n1-c1cccc(OC2CCNCC2)c1 [Compound 224, 2-allyl-6-(1-methyl-4-pyrazolylamino)-1-[m-(4-piperidyloxy)phenyl]-1,2-dihydro-3H-1,2,5,7-tetraazainden-3-one]
–	–	–	> 1000	< 10	C=CCn1c(=O)c2cnc(Nc3ccc4c(cnn4C)c3)nc2n1-c1cccc(N(C)C2CCN(C)CC2)c1 [Compound 225, 1-{m-[N-methyl (1-methyl-4-piperidyl)amino]phenyl}-2-allyl-6-(1-methyl-1H-indazol-5-ylamino)-1,2-dihydro-3H-1,2,5,7-tetraazainden-3-one]
–	–	–	> 1000	< 10	CCn1c(=O)c2cnc(Nc3ccc4c(cnn4C)c3)nc2n1-c1cccc(N(C)C2CCNCC2)n1 [Compound 286, 1-[6-(N-methyl-N-4-piperidylamino)-2-pyridyl]-2-ethyl-6-(1-methyl-1H-indazol-5-ylamino)-1,2-dihydro-3H-1,2,5,7-tetraazainden-3-one]
10 to 100	–	–	–	–	C=CCn1c(=O)c2cnc(Nc3cnn(C)c3)nc2n1-c1cccc(O[C@H]2C[C@@H]3CC[C@H]2CN3C)n1 [Compound 294, 6-[(1-methyl-1H-pyrazol-4-yl)amino]-1-(6-{[(1S,4S,5S)-2-methyl-2-azabicyclo[2.2.2]octan-5-yl]oxy}pyridin-2-yl)-2-(prop-2-en-1-yl)-1H,2H,3H-pyrazolo[3,4-d]pyrimidin-3-one]
10 to 100	–	–	–	–	C=CCn1c(=O)c2cnc(Nc3cnn(C)c3)nc2n1-c1cccc(O[C@@H]2C[C@@H]3CC[C@H]2CN3C)n1 [Compound 295, 6-[(1-methyl-1H-pyrazol-4-yl)amino]-1-(6-{[(1S,4S,5R)-2-methyl-2-azabicyclo[2.2.2]octan-5-yl]oxy}pyridin-2-yl)-2-(prop-2-en-1-yl)-1H,2H,3H-pyrazolo[3,4-d]pyrimidin-3-one]
< 10	–	< 100	–	–	C=CCn1c(=O)c2cnc(Nc3ccc4c(cnn4C)c3)nc2n1-c1cccc(OC2CCN(C3COC3)CC2)n1 [Compound 349, 2-allyl-6-((1-methyl-1H-indazol-5-yl)amino)-1-(6-((1-(oxetan-3-yl)piperidin-4-yl)oxy)pyridin-2-yl)-1,2-dihydro-3H-pyrazolo[3,4-d]pyrimidin-3-one]
< 10	–	< 100	–	–	C=CCn1c(=O)c2cnc(Nc3ccc4cnn(C)c4c3)nc2n1-c1cccc(OC2CCNCC2)n1 [Compound 359, 2-allyl-6-((1-methyl-1H-indazol-6-yl)amino)-1-(6-(piperidin-4-yloxy)pyridin-2-yl)-1,2-dihydro-3H-pyrazolo[3,4-d]pyrimidin-3-one]
–	–	< 100	–	–	C=CCn1c(=O)c2cnc(Nc3ccc4c(cnn4C)c3)nc2n1-c1cccc(OC2CCN(C)C(C)C2)n1 [Compound 402, rel-2-allyl-1-(6-(((2R,4R)-1,2-dimethylpiperidin-4-yl)oxy)pyridin-2-yl)-6-((1-methyl-1H-indazol-5-yl)amino)-1,2-dihydro-3H-pyrazolo[3,4-d]pyrimidin-3-one]
